From patent US4426519A, “7-(2-Amino-4-thiazolyl)-acetamido cephalosporanic acids” (Roussel Uclaf, priority 1979, dated 1984)
Counter-ions that a name gives are not always drawn. Like-named read-outs stand apart in the source and are kept apart here.

Legend:
Experiment in all cases: MIC, dilution in liquid medium
Assay type in all cases: cell-based
[1] = system: Escherichia Coli Resistant Gentamycine, Tobramycine R 55 123 D
Protocol: (§1) The method used was a dilution of a liquid medium where a series of tubes received the same quantity of a sterile nutritive media and increasing doses of the test compounds were placed therein. Then each tube was seeded with a bacterial strain and was incubated for 24 to 48 hours at 37° C. in an oven. The increasing inhibition was determined by transillulumination to determine the minimum inhibiting concentration (MIC in μg/ml) and the results are reported in the following Tables.

[2] = system: Klebsiella pneumoniae Exp. 52 145
Protocol: as §1

[3] = system: Proteus mirabilis (indol-) A 235
Protocol: as §1

[4] = system: Streptococcus pyogenes A 561
Protocol: as §1

[5] = system: Bacillus subtilis ATCC 6 633
Protocol: as §1

[6] = system: Escherichia Coli sensitive Tetracycline ATCC 9 637
Protocol: as §1

[7] = system: Staphylococcus aureus UC 1 128 Pen-resistant
Protocol: as §1

[8] = system: Escherichia Coli Exp. TO26 B6
Protocol: as §1

[9] = system: Escherichia Coli Resistant Tetracycline ATCC 11 303
Protocol: as §1

[10] = system: Staphylococcus aureus exp.n°54 146
Protocol: as §1

[11] = system: Staphylococcus aureus ATCC 6 538 Pen Sensitive
Protocol: as §1

Providencia Du 48 = system: Providencia Du 48
Protocol: as §1

[12] = system: Pseudomonas 3935 Exp.Sensible Gentamycine
Protocol: as §1

Enterobacter cloacae 681 = system: Enterobacter cloacae 681
Protocol: as §1

[13] = system: Klebsiella pneumoniae 2 536 Resistant Gentamycine
Protocol: as §1

[14] = system: Serratia Resistant Gentamycine 2 532
Protocol: as §1

[15] = system: Salmonella typhimurium 420; settings: Salmonella enterica
Protocol: as §1

[16] = Enterobacter cloacae, 681, 24 h
[17] = Enterobacter cloacae, 681, 48 h

Cn1nnnc1SCC1=C(C(=O)O)N2C(=O)C(NC(=O)/C(=N\OCCSC(=N)N)c3csc(N)n3)C2SC1 (stereo not drawn) [Example 4, Internal salt of the syn isomer of 3-[(1-methyl-1H-tetrazol-5-yl)-thiomethyl]-7-[2-(2-amino-4-thiazolyl)-2-(2-aminoiminomethylthioethoxyimino)-acetamido]-ceph-3-eme-4-carboxylic acid]
MIC ([1]; 24 h): 1 µg/mL | MIC ([1]; 48 h): 1 µg/mL | MIC ([2]; EXP.52145, 24 h): 1 µg/mL | MIC ([2]; EXP.52145, 48 h): 1 µg/mL | MIC ([3]; 24 h): 0.2 µg/mL | MIC ([3]; 48 h): 0.5 µg/mL | MIC ([4]; A561, 24 h): 0.05 µg/mL | MIC ([4]; A561, 48 h): 0.05 µg/mL | MIC ([5]; ATCC6, 24 h, read-out: MIC): 0.5 µg/mL | MIC ([5]; ATCC6, 48 h): 2 µg/mL | MIC ([6]; ATCC9, 24 h): 2 µg/mL | MIC ([6]; ATCC9, 48 h): 2 µg/mL | MIC ([7]; UC1, 24 h): 2 µg/mL | MIC ([7]; UC1, 48 h): 2 µg/mL | MIC ([8]; 24 h): 1 µg/mL | MIC ([8]; 48 h): 1 µg/mL | MIC ([9]; ATCC11, 24 h): 0.2 µg/mL | MIC ([9]; ATCC11, 48 h): 0.2 µg/mL | MIC ([10]; 24 h): 2 µg/mL | MIC ([10]; 48 h): 2 µg/mL | MIC ([11]; ATCC6, 24 h): 1 µg/mL | MIC ([11]; ATCC6, 48 h): 2 µg/mL | MIC (Providencia Du 48; DU48, 24 h): 5 µg/mL | MIC (Providencia Du 48; DU48, 48 h, read-out: MIC): 10 µg/mL | MIC ([12]; 24 h): 10 µg/mL | MIC ([12]; 48 h): 20 µg/mL | MIC (Enterobacter cloacae 681; [16]): 3 µg/mL | MIC (Enterobacter cloacae 681; [17]): 3 µg/mL | MIC ([13]; 24 h): 5 µg/mL | MIC ([13]; 48 h): 5 µg/mL | MIC ([14]; 24 h): 1 µg/mL | MIC ([14]; 48 h): 1 µg/mL | MIC ([15]; 24 h): 2 µg/mL | MIC ([15]; 48 h): 2 µg/mL

[N-]=[N+]=NCC1=C(C(=O)O)N2C(=O)C(NC(=O)/C(=N\OCCSC(=N)N)c3csc(N)n3)C2SC1 (stereo not drawn) [Example 5, Internal salt of syn isomer of 3-azidomethyl-7-[2-(2-amino-4-thiazolyl)-2-(2-aminoiminomethylthioethoxyimino)-acetamido]-ceph-3-eme-4-carboxylic acid]
MIC ([1]; 24 h, read-out: MIC): 1 µg/mL | MIC ([1]; 48 h, read-out: MIC): 1 µg/mL | MIC ([2]; EXP.52145, 24 h, read-out: MIC): 1 µg/mL | MIC ([2]; EXP.52145, 48 h, read-out: MIC): 1 µg/mL | MIC ([3]; 24 h): 0.2 µg/mL | MIC ([3]; 48 h): 0.2 µg/mL | MIC ([4]; A561, 24 h): < 0.02 µg/mL | MIC ([4]; A561, 48 h): 0.05 µg/mL | MIC ([5]; ATCC6, 24 h, read-out: MIC): 2 µg/mL | MIC ([5]; ATCC6, 48 h): 3 µg/mL | MIC ([6]; ATCC9, 24 h, read-out: MIC): 2 µg/mL | MIC ([6]; ATCC9, 48 h, read-out: MIC): 2 µg/mL | MIC ([7]; UC1, 24 h, read-out: MIC): 1 µg/mL | MIC ([7]; UC1, 48 h, read-out: MIC): 2 µg/mL | MIC ([8]; 24 h): 0.5 µg/mL | MIC ([8]; 48 h): 0.5 µg/mL | MIC ([9]; ATCC11, 24 h): 0.2 µg/mL | MIC ([9]; ATCC11, 48 h): 0.2 µg/mL | MIC ([10]; 24 h, read-out: MIC): 1 µg/mL | MIC ([10]; 48 h, read-out: MIC): 2 µg/mL | MIC ([11]; ATCC6, 24 h, read-out: MIC): 1 µg/mL | MIC ([11]; ATCC6, 48 h, read-out: MIC): 1 µg/mL | MIC (Providencia Du 48; DU48, 24 h, read-out: MIC): 10 µg/mL | MIC (Providencia Du 48; DU48, 48 h, read-out: MIC): 10 µg/mL | MIC (Enterobacter cloacae 681; [16]): 3 µg/mL | MIC (Enterobacter cloacae 681; [17]): 3 µg/mL | MIC ([13]; 24 h, read-out: MIC): 2 µg/mL | MIC ([13]; 48 h): 3 µg/mL | MIC ([14]; 24 h, read-out: MIC): 1 µg/mL | MIC ([14]; 48 h, read-out: MIC): 1 µg/mL | MIC ([15]; 24 h, read-out: MIC): 1 µg/mL | MIC ([15]; 48 h, read-out: MIC): 1 µg/mL

Cc1nnc(SCC2=C(C(=O)O)N3C(=O)C(NC(=O)/C(=N\OCCSC(=N)N)c4csc(N)n4)C3SC2)s1 (stereo not drawn) [Example 6, Internal salt of syn isomer of 3-[(2-methyl-1,3,4-thiadiazol-5-yl)-thiomethyl]-7-[2-(2-amino-4-thiazolyl)-2-(2-aminoiminomethylthioethoxyimino)-acetamido]-ceph-3-eme-4-carboxylic acid]
MIC ([1]; 24 h, read-out: MIC): 1 µg/mL | MIC ([1]; 48 h, read-out: MIC): 1 µg/mL | MIC ([2]; EXP.52145, 24 h, read-out: MIC): 1 µg/mL | MIC ([2]; EXP.52145, 48 h, read-out: MIC): 1 µg/mL | MIC ([3]; 24 h): 1 µg/mL | MIC ([3]; 48 h): 1 µg/mL | MIC ([4]; A561, 24 h): 0.05 µg/mL | MIC ([4]; A561, 48 h): 0.05 µg/mL | MIC ([5]; ATCC6, 24 h, read-out: MIC): 1 µg/mL | MIC ([5]; ATCC6, 48 h): 2 µg/mL | MIC ([6]; ATCC9, 24 h, read-out: MIC): 5 µg/mL | MIC ([6]; ATCC9, 48 h): 5 µg/mL | MIC ([7]; UC1, 24 h): 2 µg/mL | MIC ([7]; UC1, 48 h): 2 µg/mL | MIC ([8]; 24 h): 2 µg/mL | MIC ([8]; 48 h): 2 µg/mL | MIC ([9]; ATCC11, 24 h): 0.1 µg/mL | MIC ([9]; ATCC11, 48 h): 0.1 µg/mL | MIC ([10]; 24 h): 2 µg/mL | MIC ([10]; 48 h): 2 µg/mL | MIC ([11]; ATCC6, 24 h, read-out: MIC): 1 µg/mL | MIC ([11]; ATCC6, 48 h): 2 µg/mL | MIC (Enterobacter cloacae 681; Enterobacter cloacae, 681, 24 h, read-out: MIC): 10 µg/mL | MIC (Enterobacter cloacae 681; Enterobacter cloacae, 681, 48 h, read-out: MIC): 10 µg/mL | MIC ([13]; 24 h, read-out: MIC): 5 µg/mL | MIC ([13]; 48 h): 5 µg/mL | MIC ([14]; 24 h): 2 µg/mL | MIC ([14]; 48 h, read-out: MIC): 3 µg/mL | MIC ([15]; 24 h): 2 µg/mL | MIC ([15]; 48 h, read-out: MIC): 3 µg/mL
